{"source": "patent US10561736B1", "about": "“Apoptosis inhibitor formulations for prevention of hearing loss” (Spiral Therapeutics, Inc., priority 2019, dated 2020)", "key": {"A549 cells": {"tested_on": "A549 cells", "assay": "proliferation of non-apoptotic A549 cells", "assay_type": "cell-based", "settings": "A549 cells cultured with LPT99 up to 6 days; reversible on removal", "procedure": "The effect of LPT99 on proliferation of non-apoptotic cells was studied. A549 cells were cultured in the presence of LPT99 for up to 6 days; the cell number was monitored by flow cytometry, and doubling time was calculated."}, "HEI-OC1 cells": {"tested_on": "HEI-OC1 cells", "settings": "cellular model of CisPt-induced apoptosis; IEB Symposium abstracts 2016; cited from earlier work"}, "solubility": {"assay": "solubility", "assay_type": "physicochemical"}, "[1]": {"target": "apoptosome complex composed by recombinant Apaf-1, Cytc, deoxyadenosine triphosphate (dATP), and caspase 9 (Homo sapiens, UniProt O14727)", "assay": "inhibition of apoptosome complex formation, recombinant proteins", "assay_type": "biochemical", "settings": "mean ± SD, read-out: apoptosome inhibition (measured as inhibition of caspase 3 activation)", "procedure": "The specificity of LPT99 was tested in vitro on Apaf-1, caspase 3, and caspase 9 (proteins from the apoptotic cascade), and a broad panel of potential pharmacological targets.\nLPT99 inhibited the formation of the apoptosome complex composed by recombinant Apaf-1, Cytc, deoxyadenosine triphosphate (dATP), and caspase 9. This activity was measured as inhibition of caspase 3 activation. […] To evaluate the specificity of the inhibition, an assay of caspase 3 and 9 activation was set up with recombinant proteins. The inhibitions of caspase 3 and 9 were 7.6±14.7 and 5.3±3.5, respectively, for LPT99."}, "melatonin receptor (MT1)": {"target": "melatonin receptor (MT1) (Homo sapiens, UniProt P48039)", "sequence (P48039 whole entry)": "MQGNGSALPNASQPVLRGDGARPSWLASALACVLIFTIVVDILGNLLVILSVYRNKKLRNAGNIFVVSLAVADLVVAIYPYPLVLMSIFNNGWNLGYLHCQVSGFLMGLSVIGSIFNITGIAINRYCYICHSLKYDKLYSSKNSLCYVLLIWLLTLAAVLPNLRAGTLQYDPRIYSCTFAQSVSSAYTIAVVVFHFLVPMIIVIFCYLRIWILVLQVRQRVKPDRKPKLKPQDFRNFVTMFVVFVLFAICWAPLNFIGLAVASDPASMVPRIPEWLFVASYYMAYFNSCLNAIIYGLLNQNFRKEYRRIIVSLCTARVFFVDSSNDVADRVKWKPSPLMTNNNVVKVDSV", "assay": "off-target selectivity panel", "assay_type": "binding", "procedure": "(§1) To identify off-target activities of LPT99, its selectivity against a panel of receptors (44 G-protein-coupled receptors [GPCR] and 4 non-GPCR), 4 ion channels, and 3 transporters were analyzed. The cell line, HEI-OC1 (house ear institute organ of Corti 1), which expresses several characteristic markers of the organ of Corti sensory cells (Kalinec, et al., Audiol. Neurootol. 2003, 8(4), 177-89), was used to evaluate the efficacy of LPT99 in preventing apoptosis due to […]. Cells were pre-incubated with LPT99, followed by […] for 24 hours.\n(§2) For 14 of the tested targets-adenosine receptor 3 (A3); cholecystokinin: cholecystokinin receptor 1 (CCK1); melatonin receptor (MT1); neurokinin (NK2 and NK3); opioid (kOP and mOP); serotonin receptors (5HT-1A, 5HT-2A, 5HT-2B and 5HT-7); and vasopressin (ViA; Na+channel site 2 and C1-GABA-gated channel)—the LPT99 affinity was >50%. At 1 μM, the inhibition of 13 of these targets was <50%, indicating a very low affinity with LPT99."}, "[2]": {"target": "serotonin receptor 5HT-1A (Homo sapiens, UniProt P08908)", "sequence (P08908 whole entry)": "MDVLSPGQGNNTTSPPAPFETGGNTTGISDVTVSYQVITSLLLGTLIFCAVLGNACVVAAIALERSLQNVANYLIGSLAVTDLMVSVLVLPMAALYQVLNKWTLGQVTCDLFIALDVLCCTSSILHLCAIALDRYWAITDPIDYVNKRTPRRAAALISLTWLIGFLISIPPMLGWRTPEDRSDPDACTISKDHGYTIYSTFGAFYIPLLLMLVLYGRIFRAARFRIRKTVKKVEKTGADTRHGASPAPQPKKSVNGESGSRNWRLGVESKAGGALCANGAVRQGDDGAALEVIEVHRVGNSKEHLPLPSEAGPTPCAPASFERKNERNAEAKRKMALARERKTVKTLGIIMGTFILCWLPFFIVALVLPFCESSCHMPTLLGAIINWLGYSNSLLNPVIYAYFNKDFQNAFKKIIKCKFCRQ", "assay": "off-target selectivity panel", "assay_type": "binding", "procedure": "as §1, §2"}, "Na+channel site 2": {"tested_on": "Na+channel site 2", "assay": "off-target selectivity panel", "assay_type": "binding", "procedure": "as §1, §2"}, "serotonin receptor 5HT-7": {"target": "serotonin receptor 5HT-7 (Homo sapiens, UniProt P34969)", "sequence (P34969 whole entry)": "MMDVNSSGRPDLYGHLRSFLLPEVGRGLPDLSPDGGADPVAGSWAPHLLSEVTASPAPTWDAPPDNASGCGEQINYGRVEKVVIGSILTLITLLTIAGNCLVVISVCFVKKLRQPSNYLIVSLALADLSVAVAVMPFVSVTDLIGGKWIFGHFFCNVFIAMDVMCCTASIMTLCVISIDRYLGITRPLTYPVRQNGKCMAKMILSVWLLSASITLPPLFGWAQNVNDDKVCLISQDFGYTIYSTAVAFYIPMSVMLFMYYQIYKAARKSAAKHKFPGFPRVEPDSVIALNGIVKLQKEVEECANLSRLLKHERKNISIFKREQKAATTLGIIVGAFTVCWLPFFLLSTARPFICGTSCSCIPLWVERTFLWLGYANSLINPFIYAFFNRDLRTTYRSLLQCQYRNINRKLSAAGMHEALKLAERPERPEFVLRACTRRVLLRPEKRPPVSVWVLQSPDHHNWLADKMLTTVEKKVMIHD", "assay": "off-target selectivity panel", "assay_type": "binding", "procedure": "as §1, §2"}, "opioid (kOP)": {"target": "opioid (kOP) (Homo sapiens, UniProt P41145)", "sequence (P41145 whole entry)": "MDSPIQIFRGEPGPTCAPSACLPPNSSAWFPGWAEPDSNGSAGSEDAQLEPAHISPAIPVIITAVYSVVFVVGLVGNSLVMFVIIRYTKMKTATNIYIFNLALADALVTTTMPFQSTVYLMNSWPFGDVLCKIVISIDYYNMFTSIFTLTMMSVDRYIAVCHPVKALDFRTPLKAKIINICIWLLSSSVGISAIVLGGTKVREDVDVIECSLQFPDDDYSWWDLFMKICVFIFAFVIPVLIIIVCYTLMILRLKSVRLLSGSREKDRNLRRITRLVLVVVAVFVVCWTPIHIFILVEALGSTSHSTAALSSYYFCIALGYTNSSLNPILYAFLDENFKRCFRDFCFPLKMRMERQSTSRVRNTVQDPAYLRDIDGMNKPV", "assay": "off-target selectivity panel", "assay_type": "binding", "procedure": "as §1, §2"}, "[3]": {"tested_on": "panel of receptors (44 GPCR and 4 non-GPCR), 4 ion channels, and 3 transporters", "assay": "off-target selectivity panel", "assay_type": "binding", "settings": "10 μM", "procedure": "as §1, §2"}, "neurokinin (NK2)": {"target": "neurokinin (NK2) (Homo sapiens, UniProt P21452)", "sequence (P21452 whole entry)": "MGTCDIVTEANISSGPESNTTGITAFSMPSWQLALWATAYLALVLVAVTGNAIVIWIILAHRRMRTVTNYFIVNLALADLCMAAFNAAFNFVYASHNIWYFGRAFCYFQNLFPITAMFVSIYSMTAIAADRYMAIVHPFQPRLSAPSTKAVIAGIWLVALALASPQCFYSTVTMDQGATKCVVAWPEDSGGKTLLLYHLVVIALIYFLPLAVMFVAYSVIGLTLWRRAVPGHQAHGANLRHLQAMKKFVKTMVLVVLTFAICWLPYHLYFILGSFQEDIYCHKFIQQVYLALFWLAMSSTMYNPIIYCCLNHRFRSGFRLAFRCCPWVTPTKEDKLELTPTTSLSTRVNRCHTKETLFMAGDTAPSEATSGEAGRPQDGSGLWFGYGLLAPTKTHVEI", "assay": "off-target selectivity panel", "assay_type": "binding", "procedure": "as §1, §2"}, "C1-GABA-gated channel": {"tested_on": "C1-GABA-gated channel", "assay": "off-target selectivity panel", "assay_type": "binding", "procedure": "as §1, §2"}, "[4]": {"target": "cholecystokinin receptor 1 (CCK1) (Homo sapiens, UniProt P32238)", "sequence (P32238 whole entry)": "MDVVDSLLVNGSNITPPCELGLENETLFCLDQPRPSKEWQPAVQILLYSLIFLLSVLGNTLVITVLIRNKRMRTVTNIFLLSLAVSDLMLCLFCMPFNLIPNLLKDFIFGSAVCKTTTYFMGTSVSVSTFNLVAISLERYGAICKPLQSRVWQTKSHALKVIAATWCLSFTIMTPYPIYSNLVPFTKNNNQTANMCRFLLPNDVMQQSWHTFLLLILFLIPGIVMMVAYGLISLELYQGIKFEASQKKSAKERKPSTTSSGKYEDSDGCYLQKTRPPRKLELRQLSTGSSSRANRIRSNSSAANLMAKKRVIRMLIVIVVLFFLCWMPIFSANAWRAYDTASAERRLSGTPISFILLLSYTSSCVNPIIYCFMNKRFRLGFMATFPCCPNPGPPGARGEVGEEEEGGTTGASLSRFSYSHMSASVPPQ", "assay": "off-target selectivity panel", "assay_type": "binding", "procedure": "as §1, §2"}, "opioid (mOP)": {"target": "opioid (mOP) (Homo sapiens, UniProt P35372)", "sequence (P35372 whole entry)": "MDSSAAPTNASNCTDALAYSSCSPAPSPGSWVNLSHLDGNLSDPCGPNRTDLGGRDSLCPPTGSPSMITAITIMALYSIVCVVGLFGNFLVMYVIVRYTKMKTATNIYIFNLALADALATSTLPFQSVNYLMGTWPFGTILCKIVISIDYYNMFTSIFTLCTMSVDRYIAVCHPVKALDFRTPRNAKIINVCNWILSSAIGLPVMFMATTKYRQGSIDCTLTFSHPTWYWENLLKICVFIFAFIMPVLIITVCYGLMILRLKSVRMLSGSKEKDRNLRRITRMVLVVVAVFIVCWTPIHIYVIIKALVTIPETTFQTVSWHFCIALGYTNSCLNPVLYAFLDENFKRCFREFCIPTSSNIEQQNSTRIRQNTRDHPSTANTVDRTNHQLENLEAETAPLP", "assay": "off-target selectivity panel", "assay_type": "binding", "procedure": "as §1, §2"}, "vasopressin (ViA)": {"target": "vasopressin (ViA) (Homo sapiens, UniProt P37288)", "assay": "off-target selectivity panel", "assay_type": "binding", "procedure": "as §1, §2"}, "[5]": {"target": "serotonin receptor 5HT-2B (Homo sapiens, UniProt P41595)", "sequence (P41595 whole entry)": "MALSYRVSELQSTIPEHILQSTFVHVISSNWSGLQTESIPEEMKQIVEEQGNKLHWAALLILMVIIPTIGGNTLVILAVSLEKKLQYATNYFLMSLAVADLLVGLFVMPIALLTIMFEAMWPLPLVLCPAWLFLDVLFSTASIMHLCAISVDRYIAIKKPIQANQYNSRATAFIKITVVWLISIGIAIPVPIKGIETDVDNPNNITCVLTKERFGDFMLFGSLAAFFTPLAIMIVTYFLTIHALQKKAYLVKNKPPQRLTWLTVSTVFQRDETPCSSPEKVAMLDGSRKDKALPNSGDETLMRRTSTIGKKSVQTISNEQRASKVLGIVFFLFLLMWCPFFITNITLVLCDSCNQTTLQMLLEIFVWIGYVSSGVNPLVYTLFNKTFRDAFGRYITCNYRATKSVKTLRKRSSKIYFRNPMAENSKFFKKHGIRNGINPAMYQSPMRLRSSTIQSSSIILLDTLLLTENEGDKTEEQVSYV", "assay": "off-target selectivity panel", "assay_type": "binding", "procedure": "as §1, §2"}, "[6]": {"target": "serotonin receptor 5HT-2A (Homo sapiens, UniProt P28223)", "sequence (P28223 whole entry)": "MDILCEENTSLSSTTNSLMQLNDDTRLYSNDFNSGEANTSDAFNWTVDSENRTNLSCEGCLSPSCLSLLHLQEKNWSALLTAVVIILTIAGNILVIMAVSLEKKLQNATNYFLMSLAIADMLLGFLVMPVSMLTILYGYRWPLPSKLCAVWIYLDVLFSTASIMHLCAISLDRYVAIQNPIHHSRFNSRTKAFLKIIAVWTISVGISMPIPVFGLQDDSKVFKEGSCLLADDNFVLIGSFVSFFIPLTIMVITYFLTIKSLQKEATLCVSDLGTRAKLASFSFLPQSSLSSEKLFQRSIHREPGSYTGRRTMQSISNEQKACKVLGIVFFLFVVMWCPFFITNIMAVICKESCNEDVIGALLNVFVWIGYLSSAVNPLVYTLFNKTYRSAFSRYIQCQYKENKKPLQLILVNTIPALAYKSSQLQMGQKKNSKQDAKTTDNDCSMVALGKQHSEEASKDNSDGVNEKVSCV", "assay": "off-target selectivity panel", "assay_type": "binding", "procedure": "as §1, §2"}, "[7]": {"target": "adenosine receptor 3 (A3) (Homo sapiens, UniProt P0DMS8)", "sequence (P0DMS8 whole entry)": "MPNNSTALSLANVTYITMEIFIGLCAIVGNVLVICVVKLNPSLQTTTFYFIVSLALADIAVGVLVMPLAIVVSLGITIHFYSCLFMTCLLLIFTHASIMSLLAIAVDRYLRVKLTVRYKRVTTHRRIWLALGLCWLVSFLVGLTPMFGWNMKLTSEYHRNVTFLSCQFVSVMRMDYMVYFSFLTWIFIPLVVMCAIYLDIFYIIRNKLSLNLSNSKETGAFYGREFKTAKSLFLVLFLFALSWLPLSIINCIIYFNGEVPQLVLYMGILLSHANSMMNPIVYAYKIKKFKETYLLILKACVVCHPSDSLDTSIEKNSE", "assay": "off-target selectivity panel", "assay_type": "binding", "procedure": "as §1, §2"}, "neurokinin (NK3)": {"target": "neurokinin (NK3) (Homo sapiens, UniProt P29371)", "sequence (P29371 whole entry)": "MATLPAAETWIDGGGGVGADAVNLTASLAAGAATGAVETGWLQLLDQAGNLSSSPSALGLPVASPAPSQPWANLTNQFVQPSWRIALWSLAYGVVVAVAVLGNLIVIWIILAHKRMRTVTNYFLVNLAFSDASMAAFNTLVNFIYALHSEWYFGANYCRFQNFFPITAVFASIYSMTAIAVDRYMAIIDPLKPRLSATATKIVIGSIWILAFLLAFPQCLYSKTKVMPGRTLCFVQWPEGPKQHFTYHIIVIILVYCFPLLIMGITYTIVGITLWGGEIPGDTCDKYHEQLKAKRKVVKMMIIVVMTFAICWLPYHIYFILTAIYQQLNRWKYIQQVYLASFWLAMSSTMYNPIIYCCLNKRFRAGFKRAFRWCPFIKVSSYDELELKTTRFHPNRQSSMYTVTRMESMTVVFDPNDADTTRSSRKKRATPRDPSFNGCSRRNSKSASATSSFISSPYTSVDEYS", "assay": "off-target selectivity panel", "assay_type": "binding", "procedure": "as §1, §2"}, "[8]": {"assay": "calculation of the maximum recommended starting dose (MRSD)", "set-up": "species or system human", "procedure": "For the calculation of the maximum recommended starting dose (MRSD) the following parameters have been considered:\nThe total perilymph volume in rat will be then: (Cochlearperilymph+Semicircular canalsperilymph)=STperilymph+SVperilymph+Semicircular canalsperilymph=1.04+1.59+0.9=3.53 μl\nThe total perilymph volume in human has been described to be 158 μl (Buckingham and Valvassori, Ann. Otol. Rhinol. Laryngol. 2001, 110(2), 113-7).\nThe amount of LPT99 to be injected in humans is normalized with the volumes of perilymph in rats and humans and the amount injected at the NOAEL dose as follows: LPT99 injected,rats/Volume perilymphrats=LPT99 injected,humans/Volume perilymphhumans 15 μg/3.53 μl=Y μg/158 μl; Y=671.38 μg.\nMRSD should not exceed that which is calculated to deliver 1/10th of the estimated perilymph concentration of LPT99 in rat at the NOAEL, when normalized to the perilymph volume in humans. 67.14 μg ( 1/10 of 671.38 μg) is calculated as the maximum mass of LPT99 to be delivered in a volume of 200 μl. The MRSD would be then 67.14 μg/200 μl=535 μM."}}, "note": "Like-named read-outs stand apart in the source and are kept apart here."}
{"smiles": "COc1ccc2[nH]cc(CCNC(=O)CC3C(=O)N(CCc4ccc(Cl)cc4Cl)CC(=O)N3CCc3cccs3)c2c1", "note": "(stereo not drawn) [LPT99, 2-(4-(2,4-dichlorophenethyl)-3,6-dioxo-1-(2-(thiophen-2-yl)ethyl)piperazin-2-yl)-N-(2-(5-methoxy-1H-indol-3-yl)ethyl)acetamide]", "values": [{"measurement": "cellular proliferation of non-apoptotic cells", "setting": "A549 cells", "value": "delayed cellular proliferation"}, {"measurement": "cell viability", "setting": "HEI-OC1 cells", "value": "improved cell viability"}, {"measurement": "increase in drug solubility", "setting": "solubility; 14.7 wt/wt % vehicle vs aqueous", "value": 332, "unit": "fold"}, {"measurement": "solubility", "setting": "solubility; aqueous (not further specified), read-out: aqueous solubility", "value": 2.4, "unit": "µM"}, {"measurement": "solubility", "setting": "solubility; aqueous with cosolvent or surfactant or cyclodextrin, 14.7 wt/wt %, read-out: solubility in 14.7 wt/wt % vehicle", "value": "≥ 797", "unit": "µM"}, {"measurement": "inhibition at 10 µM", "setting": "[1]", "value": 78.9, "unit": "%"}, {"measurement": "inhibition at 0.1 µM", "setting": "melatonin receptor (MT1); 0.1 μM", "value": 6, "unit": "%"}, {"measurement": "inhibition at 1 µM", "setting": "melatonin receptor (MT1); 1 μM", "value": 53, "unit": "%"}, {"measurement": "inhibition at 10 µM", "setting": "melatonin receptor (MT1); 10 μM, read-out: affinity (inhibition) MT1", "value": "> 50", "unit": "%"}, {"measurement": "inhibition at 1 µM", "setting": "[2]; 1 μM", "value": "< 50", "unit": "%"}, {"measurement": "inhibition at 10 µM", "setting": "[2]; 10 μM, read-out: affinity (inhibition) 5HT-1A", "value": "> 50", "unit": "%"}, {"measurement": "inhibition Na+channel site 2", "setting": "Na+channel site 2; 1 μM", "value": "< 50", "unit": "%"}, {"measurement": "affinity (inhibition) Na+channel site 2", "setting": "Na+channel site 2; 10 μM", "value": "> 50", "unit": "%"}, {"measurement": "inhibition at 1 µM", "setting": "serotonin receptor 5HT-7; 1 μM", "value": "< 50", "unit": "%"}, {"measurement": "inhibition at 10 µM", "setting": "serotonin receptor 5HT-7; 10 μM, read-out: affinity (inhibition) 5HT-7", "value": "> 50", "unit": "%"}, {"measurement": "inhibition at 1 µM", "setting": "opioid (kOP); 1 μM", "value": "< 50", "unit": "%"}, {"measurement": "inhibition at 10 µM", "setting": "opioid (kOP); 10 μM, read-out: affinity (inhibition) kOP", "value": "> 50", "unit": "%"}, {"measurement": "in vitro inhibition, 41 of the tested targets", "setting": "[3]", "value": "< 50", "unit": "%"}, {"measurement": "inhibition at 1 µM", "setting": "neurokinin (NK2); 1 μM", "value": "< 50", "unit": "%"}, {"measurement": "inhibition at 10 µM", "setting": "neurokinin (NK2); 10 μM, read-out: affinity (inhibition) NK2", "value": "> 50", "unit": "%"}, {"measurement": "inhibition C1-GABA-gated channel", "setting": "C1-GABA-gated channel; 1 μM", "value": "< 50", "unit": "%"}, {"measurement": "affinity (inhibition) C1-GABA-gated channel", "setting": "C1-GABA-gated channel; 10 μM", "value": "> 50", "unit": "%"}, {"measurement": "inhibition at 1 µM", "setting": "[4]; 1 μM", "value": "< 50", "unit": "%"}, {"measurement": "inhibition at 10 µM", "setting": "[4]; 10 μM, read-out: affinity (inhibition) CCK1", "value": "> 50", "unit": "%"}, {"measurement": "inhibition at 1 µM", "setting": "opioid (mOP); 1 μM", "value": "< 50", "unit": "%"}, {"measurement": "inhibition at 10 µM", "setting": "opioid (mOP); 10 μM, read-out: affinity (inhibition) mOP", "value": "> 50", "unit": "%"}, {"measurement": "inhibition at 1 µM", "setting": "vasopressin (ViA); 1 μM", "value": "< 50", "unit": "%"}, {"measurement": "inhibition at 10 µM", "setting": "vasopressin (ViA); 10 μM, read-out: affinity (inhibition) ViA", "value": "> 50", "unit": "%"}, {"measurement": "inhibition at 1 µM", "setting": "[5]; 1 μM", "value": "< 50", "unit": "%"}, {"measurement": "inhibition at 10 µM", "setting": "[5]; 10 μM, read-out: affinity (inhibition) 5HT-2B", "value": "> 50", "unit": "%"}, {"measurement": "inhibition at 1 µM", "setting": "[6]; 1 μM", "value": "< 50", "unit": "%"}, {"measurement": "inhibition at 10 µM", "setting": "[6]; 10 μM, read-out: affinity (inhibition) 5HT-2A", "value": "> 50", "unit": "%"}, {"measurement": "inhibition at 1 µM", "setting": "[7]; 1 μM", "value": "< 50", "unit": "%"}, {"measurement": "inhibition at 10 µM", "setting": "[7]; 10 μM, read-out: affinity (inhibition) A3", "value": "> 50", "unit": "%"}, {"measurement": "inhibition at 1 µM", "setting": "neurokinin (NK3); 1 μM", "value": "< 50", "unit": "%"}, {"measurement": "inhibition at 10 µM", "setting": "neurokinin (NK3); 10 μM, read-out: affinity (inhibition) NK3", "value": "> 50", "unit": "%"}, {"measurement": "MRSD", "setting": "[8]; human", "value": 535, "unit": "µM"}, {"measurement": "maximum mass of LPT99 to be delivered (1/10 of NOAEL equivalent)", "setting": "[8]; in a volume of 200 μl", "value": 67.14, "unit": "µg"}, {"measurement": "amount of LPT99 to be injected in humans normalized by perilymph volume at the NOAEL", "setting": "[8]; rat 3.53 μl vs human 158 μl perilymph", "value": 671.38, "unit": "µg"}]}
